Consider one compound from patent US20180092845A1, “ENZYME-RESPONSIVE NANOPARTICLES” (THE REGENTS OF THE UNIVERSITY OF CALIFORNIA, priority 2015, published 2018).

A short description of one series: in vivo. The following applies: female, nu/nu, mouse, in vivo, iv. As for the experimental part:
(§1) Mouse weight was recorded once daily until all animals in the cohort returned to, or surpassed, their weight on the day of injection. […] Two additional cohorts (6 mice, 3 per group) were treated with 15 mg/kg and 30 mg/kg of clinically formulated paclitaxel (a 6 mg/mL suspension in 1:1 ethanol:Cremophor EL®, diluted with 1×DPBS prior to injection).

For series [1], the system named is healthy nu/nu mice. The series can be described thus: in vivo. The following applies: 30 mg/kg IV; listed as clinically formulated paclitaxel. The protocol: as §1
The subject of series [2] is healthy nu/nu mice. The following applies: suspension in 1:1 Cremophor EL to ethanol; literature; cited from earlier work.

Each structure is given as a SMILES string.

As usually defined, the LD50 is the dose at which mortality reaches 50%. On to `CC(=O)O[C@H]1C(=O)[C@@]2(C)[C@H]([C@H](OC(=O)c3ccccc3)[C@]3(O)C[C@H](OC(=O)[C@H](O)[C@@H](NC(=O)c4ccccc4)c4ccccc4)C(C)=C1C3(C)C)[C@]1(OC(C)=O)CO[C@@H]1C[C@@H]2O` [PTX, paclitaxel], for which, in the series “in vivo”, the median lethal dose (LD50) came to 30 mg/kg and the MTD is 15 mg/kg. Also, in the series on healthy nu/nu mice [1], the lethality was 1 out of the 3 animals died within 30 minutes post-injection and also died within an hour of injection. Also, the “MTD in mice previously established” value in the series with healthy nu/nu mice [2] was 10 to 30 mg/kg.
